Results reported in patent publication US20060183773A1, “Uses of methylphenidate derivatives” (priority 2005, published 2006).

Assays:
Format in all cases: cell-based, human
[1] = system: IL-13; test: IL-13 release by PBL, ELISA; details: Dex 10 μM; for IL-13 release induced by PHA: donor GR467, 2 μg/ml PHA, 96 h, Cpd II 15 μg/ml, MP 15 μg/ml, FIG. 3
Method: (§1) After this incubation, PHA was added to give a final concentration of 2 μg/ml, and the cells were incubated for an additional 96 hours at 37° C., 5% CO2. All cultures were performed in triplicate. Cells were then removed by centrifugation at 1000 rpm for 10 minutes, and the culture medium collected.
(§2) Release of IL-13 and interferon gamma (IFNγ) into the culture medium was measured by ELISA. To perform the ELISA, matched pairs of antibodies against human IL-13 and IFNγ were purchased from Pierce Biotechnology and Biosource, respectively. ELISA strip well plates were coated with 10 μg/ml of antibody (in phosphate-buffered saline (PBS)) to IL-13 and 4 μg/ml of antibody to IFNγ (in PBS) overnight at room temperature. The plates were then blocked using a 4% BSA solution in PBS for one hour, followed by the addition of 50 μl of experimental culture medium per well in duplicate. The plates were incubated at room temperature for one hour and then washed using 50 mM Tris pH 8.0 with 0.1% Tween 20. Then, solutions of 400 ng/ml biotinylated second antibody to IL-13 and 500 ng/ml biotinylated second antibody to IFNγ were made in blocking buffer, and 100 μl were added per well. The plates were incubated for 1 hour and washed again. A 1:8000 dilution of Strepavidin HRP (Pierce Biotechnology) conjugate was made in blocking buffer, and 100 μl were added to the wells and incubation continued for 30 minutes. A final wash step was performed, after which 100 μl Pierce Biotechnology TMB substrate were added to each well. Color was developed for 30 minutes and stopped by adding 100 μl 0.18 N H2SO4. OD was determined using microplate reader with a 450 nm filter.
After this incubation, PHA was added to give a final concentration of 5 μg/ml, and the cells were incubated for an additional 72 hours at 37° C., 5% CO2. All cultures were performed in triplicate. Cells were then removed by centrifugation at 1000 rpm for 10 minutes.
The supernatants were collected, and the concentrations of IL-13 and tumor necrosis factor alpha (TNFα) in the supernatants were measured by ELISA. […]

[2] = system: IFNγ; test: IFNγ release by PBL, ELISA; details: donor GR467, Cpd II 15 μg/ml, MP 15 μg/ml, Dex 10 μM, FIG. 4; for IFNγ release, cells stimulated with PHA: 2 μg/ml PHA, 96 h; for IFNγ release, unstimulated cells: no PHA
Method: as §1, §2

[3] = system: c-Jun; test: c-Jun in VEGF-treated HUVECs, TransAM AP-1 assay; details: for Mean OD 450 nm (c-Jun): control 0.204, VEGF only 0.261
Method: The flasks were incubated overnight at 37° C., 5% CO2 After this incubation, vascular endothelial growth factor (VEGF) (obtained from Sigma) was added to give a final concentration 10 ng/ml, and the flasks were incubated for an additional 30 minutes.
The amount of c-Jun was determined using a TransAM™ AP-1 Family Transcription Factor Assay Kit and a Nuclear Extract Kit from Active Motif North America, Carlsbad, Calif., according to manufacturer's instructions. Briefly, a nuclear extract of the cells was prepared using the Nuclear Extract Kit. Then, the nuclear extract was added to the wells of a 96-well plate in which oligonucleotide containing a TPA-responsive element (TRE) was immobilized. Activator protein-1 (AP-1) dimers contained in the nuclear extract were bound to this oligonucleotide and were detected using an antibody specific for c-Jun. A secondary antibody conjugated to horseradish peroxidase (HRP) was next added to provide a colorimetric readout that was quantified by spectrophotometry (measurement at 450 nm).

[4] = system: RAP1; test: Custom AntibodyArray, TRiPS cells: RAP1; details: 15 μg/ml, 30 minutes
Method: (§3) Day 18 TRiPS cells, 1×10^6, were incubated for 30 minutes at 37° C., either with nothing added (“Nil”), with 1 μl CD3/CD28 Dynabeads (Dynal, Oslo, Norway) (“CD3/CD28 beads”) per 100,000 cells, or with CD3/CD28 beads and 15 μg/ml of the compound of formula II (Cpd II). After the incubation, the cells were lysed in Cell-Lytic Mammalian Cell Extraction Reagent (Sigma). After centrifugation to pellet cellular debris, the supernatants (cell extracts) were obtained.
(§4) The cell extracts (supernatants) were then analyzed using a Custom AntibodyArray™ manufactured by Hypromatrix Inc., Worcester, Mass., following the manufacturer's instructions. The Custom AntibodyArray™ is a nylon membrane blotted with antibodies to the proteins listed below. Briefly, the cell extracts were incubated with duplicate Custom AntibodyArray™'s for 2 hours at room temperature with slow shaking, followed by three washes with Tris buffer (150 mM NaCl, 25 mM Tris, 0.05% Tween-20, pH 7.5). HRP-labeled antibodies specific for phosphorylated-tyrosine, phosphorylated-serine and phosphorylated-threonine in Tris buffer were added, and the arrays incubated for 2 hours. After three more washes with Tris buffer, a peroxidase-reactive luminescent substrate was added. The arrays were visualized by exposure to X-ray film. Densitometry of the X-ray films was measured by scanning and computer analysis.

[5] = system: JAK2; test: Custom AntibodyArray, TRiPS cells: JAK2; details: 15 μg/ml, 30 minutes
Method: as §3, §4

[6] = system: IL-7y; test: Custom AntibodyArray, TRiPS cells: IL-7y; details: 15 μg/ml, 30 minutes
Method: as §3, §4

[7] = system: STAT6; test: Custom AntibodyArray, TRiPS cells: STAT6; details: 15 μg/ml, 30 minutes
Method: as §3, §4

[8] = system: HUVECs; test: Cell death of HUVECs in the TNFα/IL-8 experiment; details: highest dose (30 μg/ml)
Method: Passage 4 HUVECs, human source lot number 8710 (obtained from ATCC), were put into the wells of a 24-well tissue culture plate at 5,000 cells/well in EGM-2 medium (obtained from Cambrex) and cultured for 72 hours at 37° C. and 5% CO2. […] After incubation for 1 hour at 37° C. and 5% CO2, TNFα (obtained from Pierce) was added to give a final concentration of 10 ng/ml, and the cells were incubated for an additional 18 hours at 37° C. and 5% CO2. After this incubation, the supernatants were collected, and the amount of IL-8 in the supernatants determined by ELISA as described in Example 4.

Compound | release of IL-13 from PHA-stimulated PBL ([1]; donor GR191, 5 μg/ml PHA, 72 h, Cpd II 15 and 50 μg/ml, FIG. 6) | IL-13 release induced by PHA [1] | IFNγ release, cells stimulated with PHA [2] | IFNγ release, unstimulated cells [2] | Mean OD 450 nm (c-Jun) ([3]; VEGF 10 ng/ml + 1 μg/ml) | Mean OD 450 nm (c-Jun) ([3]; VEGF 10 ng/ml + 5 μg/ml) | Mean OD 450 nm (c-Jun) ([3]; VEGF 10 ng/ml + 15 μg/ml) | amount of c-Jun (in words) ([3]; VEGF, 15 μg/ml and 5 μg/ml) | Effect of Cpd II on the protein in CD3/CD28 stimulated TRiPS cells [4] | Effect of Cpd II on the protein in CD3/CD28 stimulated TRiPS cells [5] | Effect of Cpd II on the protein in CD3/CD28 stimulated TRiPS cells [6] | Effect of Cpd II on the protein in CD3/CD28 stimulated TRiPS cells [7] | cell death [8]
COC(=O)C(c1ccc(-c2ccccc2)cc1)C1CCCCN1 (centres unmarked) [Cpd II] | significantly inhibited the release of IL-13 | significantly inhibited IL-13 release induced by PHA | significantly inhibited IFNγ release | significantly inhibited IFNγ release | 0.221 ± 0.008 | 0.185 ± 0.025 | 0.204 ± 0.010 | completely eliminated the increase in the amount of c-Jun | Activated | Activated | Decreased level back to basal levels (Nil control) | Slightly decreased the level | some cell death
COC(=O)C(c1ccccc1)C1CCCCN1 (centres unmarked) [methylphenidate] | – | increased the release of IL-13 by the PHA-stimulated cells | increased the release of IFNγ by the PHA-stimulated cells | had some effect on the release of IFNγ by unstimulated cells | – | – | 0.230 ± 0.016 | – | – | – | – | – | –
